Reference: patent US20060009478A1, “Methods for the treatment of back pain” (priority 2003, published 2006)
Read-outs that look alike come from different tables or passages of the source.

Test system: patients with moderate to severe chronic pain due to osteoarthritis of the hip or knee
[1] = 3-week study, intent to treat population
[2] = Week 1, Days 1-3: 10 mg OXY/d, Days 4-8: 20 mg OXY/d

In the case of `COc1ccc2c3c1O[C@H]1C(=O)CC[C@@]4(O)[C@@H](C2)N(C)CC[C@]314` [OXY QID, oxycodone], the “Discontinuation of treatment because of adverse event: Any adverse event, % of patients” value [1] is reported as 28.4%, the “Discontinuation of treatment because of adverse event: Any adverse event, number of patients” value [1] is reported as 29 and the “Discontinuation of treatment because of adverse event: Constipation, % of patients” value [1] is reported as 1.0%. For the same compound, the “Discontinuation of treatment because of adverse event: Constipation, number of patients” value [1] was 1, the “Discontinuation of treatment because of adverse event: Diarrhea, % of patients” value [1] was 0.0% and the “Discontinuation of treatment because of adverse event: Diarrhea, number of patients” value [1] was 0. The “Discontinuation of treatment because of adverse event: Dizziness, % of patients” value [1] was 1.0%, the “Discontinuation of treatment because of adverse event: Dizziness, number of patients” value [1] was 1 and the “Discontinuation of treatment because of adverse event: Euphoric mood, % of patients” value [1] was 0.0%. For the same compound, the “Discontinuation of treatment because of adverse event: Euphoric mood, number of patients” value [1] was 0, the “Discontinuation of treatment because of adverse event: Eye disorders, % of patients” value [1] was 0.0% and the “Discontinuation of treatment because of adverse event: Eye disorders, number of patients” value [1] was 0. The “Discontinuation of treatment because of adverse event: Gastrointestinal disorders, % of patients” value [1] was 12.7%, the “Discontinuation of treatment because of adverse event: Gastrointestinal disorders, number of patients” value [1] was 13 and the “Discontinuation of treatment because of adverse event: General disorders and administration site conditions, % of patients” value [1] was 2.0%. The “Discontinuation of treatment because of adverse event: General disorders and administration site conditions, number of patients” value [1] was 2, the “Discontinuation of treatment because of adverse event: Headache, % of patients” value [1] was 2.0% and the “Discontinuation of treatment because of adverse event: Headache, number of patients” value [1] was 2. The “Discontinuation of treatment because of adverse event: Lethargy, % of patients” value [1] was 0.0%, the “Discontinuation of treatment because of adverse event: Lethargy, number of patients” value [1] was 0 and the “Discontinuation of treatment because of adverse event: Nausea, % of patients” value [1] was 6.9%. For the same compound, the “Discontinuation of treatment because of adverse event: Nausea, number of patients” value [1] was 7, the “Discontinuation of treatment because of adverse event: Nervous system disorders, % of patients” value [1] was 7.8% and the “Discontinuation of treatment because of adverse event: Nervous system disorders, number of patients” value [1] was 8. The “Discontinuation of treatment because of adverse event: Pruritus, % of patients” value [1] was 1.0%, the “Discontinuation of treatment because of adverse event: Pruritus, number of patients” value [1] was 1 and the “Discontinuation of treatment because of adverse event: Psychiatric disorders, % of patients” value [1] was 1.0%. The “Discontinuation of treatment because of adverse event: Psychiatric disorders, number of patients” value [1] was 1, the “Discontinuation of treatment because of adverse event: Sedation, % of patients” value [1] was 2.0% and the “Discontinuation of treatment because of adverse event: Sedation, number of patients” value [1] was 2. For the same compound, the “Discontinuation of treatment because of adverse event: Skin and subcutaneous tissue disorders, % of patients” value [1] was 2.9%, the “Discontinuation of treatment because of adverse event: Skin and subcutaneous tissue disorders, number of patients” value [1] was 3 and the “Discontinuation of treatment because of adverse event: Sommolence, % of patients” value [1] was 2.0%. The “Discontinuation of treatment because of adverse event: Sommolence, number of patients” value [1] was 2, the “Discontinuation of treatment because of adverse event: Upper abdominal pain, % of patients” value [1] was 0.0% and the “Discontinuation of treatment because of adverse event: Upper abdominal pain, number of patients” value [1] was 0. For the same compound, the “Discontinuation of treatment because of adverse event: Vomiting, % of patients” value [1] was 3.9%, the “Discontinuation of treatment because of adverse event: Vomiting, number of patients” value [1] was 4 and the “Adverse event Constipation, % of patients” value [2] was 12.7%. The “Adverse event Constipation, number of patients” value [2] was 13, the “Adverse event Dizziness, % of patients” value [2] was 16.7% and the “Adverse event Dizziness, number of patients” value [2] was 17. The “Adverse event Dry Mouth, % of patients” value [2] was 5.9%, the “Adverse event Dry Mouth, number of patients” value [2] was 6 and the “Adverse event Fatigue, % of patients” value [2] was 2.9%. For the same compound, the “Adverse event Fatigue, number of patients” value [2] was 3, the “Adverse event Headache, % of patients” value [2] was 16.7% and the “Adverse event Headache, number of patients” value [2] was 17. For the same compound, the “Adverse event Nausea, % of patients” value [2] was 23.5%, the “Adverse event Nausea, number of patients” value [2] was 24 and the “Adverse event Pruritus, % of patients” value [2] was 7.8%. The “Adverse event Pruritus, number of patients” value [2] was 8, the “Adverse event Sommolence, % of patients” value [2] was 15.7% and the “Adverse event Sommolence, number of patients” value [2] was 16. The “Adverse event Vomiting, % of patients” value [2] was 3.9%, the “Adverse event Vomiting, number of patients” value [2] was 4 and the “Adverse event Constipation, % of patients” value (Week 2, 30 mg OXY/d) was 7.1%. The “Adverse event Constipation, number of patients” value (Week 2, 30 mg OXY/d) was 6, the “Adverse event Dizziness, % of patients” value (Week 2, 30 mg OXY/d) was 11.8% and the “Adverse event Dizziness, number of patients” value (Week 2, 30 mg OXY/d) was 10. For the same compound, the “Adverse event Dry Mouth, % of patients” value (Week 2, 30 mg OXY/d) was 4.7%, the “Adverse event Dry Mouth, number of patients” value (Week 2, 30 mg OXY/d) was 4 and the “Adverse event Fatigue, % of patients” value (Week 2, 30 mg OXY/d) was 0.0%. For the same compound, the “Adverse event Fatigue, number of patients” value (Week 2, 30 mg OXY/d) was 0, the “Adverse event Headache, % of patients” value (Week 2, 30 mg OXY/d) was 3.5% and the “Adverse event Headache, number of patients” value (Week 2, 30 mg OXY/d) was 3. The “Adverse event Nausea, % of patients” value (Week 2, 30 mg OXY/d) was 14.1%, the “Adverse event Nausea, number of patients” value (Week 2, 30 mg OXY/d) was 12 and the “Adverse event Pruritus, % of patients” value (Week 2, 30 mg OXY/d) was 5.9%. The “Adverse event Pruritus, number of patients” value (Week 2, 30 mg OXY/d) was 5, the “Adverse event Sommolence, % of patients” value (Week 2, 30 mg OXY/d) was 7.1% and the “Adverse event Sommolence, number of patients” value (Week 2, 30 mg OXY/d) was 6. The “Adverse event Vomiting, % of patients” value (Week 2, 30 mg OXY/d) was 3.5%, the “Adverse event Vomiting, number of patients” value (Week 2, 30 mg OXY/d) was 3 and the “Adverse event Constipation, % of patients” value (Week 3, 40 mg OXY/d) was 2.7%. The “Adverse event Constipation, number of patients” value (Week 3, 40 mg OXY/d) was 2, the “Adverse event Dizziness, % of patients” value (Week 3, 40 mg OXY/d) was 5.3% and the “Adverse event Dizziness, number of patients” value (Week 3, 40 mg OXY/d) was 4. For the same compound, the “Adverse event Dry Mouth, % of patients” value (Week 3, 40 mg OXY/d) was 0.0%, the “Adverse event Dry Mouth, number of patients” value (Week 3, 40 mg OXY/d) was 0 and the “Adverse event Headache, % of patients” value (Week 3, 40 mg OXY/d) was 8.0%. The “Adverse event Headache, number of patients” value (Week 3, 40 mg OXY/d) was 6, the “Adverse event Nausea, number of patients” value (Week 3, 40 mg OXY/d) was 8 and the “Adverse event Pruritus, % of patients” value (Week 3, 40 mg OXY/d) was 4.0%. The “Adverse event Pruritus, number of patients” value (Week 3, 40 mg OXY/d) was 3, the “Adverse event Sommolence, % of patients” value (Week 3, 40 mg OXY/d) was 2.7% and the “Adverse event Sommolence, number of patients” value (Week 3, 40 mg OXY/d) was 2. For the same compound, the “Adverse event Vomiting, % of patients” value (Week 3, 40 mg OXY/d) was 12.0%, the “Adverse event Vomiting, number of patients” value (Week 3, 40 mg OXY/d) was 9 and the “Patients who discontinued treatment because of adverse events (number)” value (of the 360 patients who received study drug, 3-week treatment) was 29.
